Results published in PubChem BioAssay (NCI).
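Protocol summary: plate cells (96-well), add compound at 5 concentrations, incubate 48 h, interpolate endpoints linearly. GI50: concentration for 50% inhibition of growth. TGI marks complete inhibition of growth.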

Columns and labels:
Experiment in all cases: NCI-60 cell line screen, 48 h
786-0 renal = system: 786-0 renal
A498 renal = system: A498 renal
A549 NSCLC = system: A549 NSCLC
ACHN renal = system: ACHN renal
BT-549 breast = system: BT-549 breast
CAKI-1 renal = system: CAKI-1 renal
CCRF-CEM leukemia = system: CCRF-CEM leukemia
COLO 205 colon = system: COLO 205 colon
DU-145 prostate = system: DU-145 prostate
EKVX NSCLC = system: EKVX NSCLC
HCC-2998 colon = system: HCC-2998 colon
HCT-116 colon = system: HCT-116 colon
HCT-15 colon = system: HCT-15 colon
HL-60(TB) leukemia = system: HL-60(TB) leukemia
HOP-62 NSCLC = system: HOP-62 NSCLC
HOP-92 NSCLC = system: HOP-92 NSCLC
HS 578T breast = system: HS 578T breast
HT29 colon = system: HT29 colon
IGROV1 ovarian = system: IGROV1 ovarian
K-562 leukemia = system: K-562 leukemia
KM12 colon = system: KM12 colon
LOX IMVI melanoma = system: LOX IMVI melanoma
M14 melanoma = system: M14 melanoma
MALME-3M melanoma = system: MALME-3M melanoma
MCF7 breast = system: MCF7 breast
MDA-MB-231 breast = system: MDA-MB-231 breast
MDA-MB-435 = system: MDA-MB-435
MDA-MB-468 breast = system: MDA-MB-468 breast
MOLT-4 leukemia = system: MOLT-4 leukemia
NCI-H226 lung = system: NCI-H226 lung
NCI-H23 lung = system: NCI-H23 lung
NCI-H460 lung = system: NCI-H460 lung
NCI-H522 lung = system: NCI-H522 lung
NCI/ADR-RES ovarian = system: NCI/ADR-RES ovarian
OVCAR-3 ovarian = system: OVCAR-3 ovarian
OVCAR-4 ovarian = system: OVCAR-4 ovarian
OVCAR-5 ovarian = system: OVCAR-5 ovarian
OVCAR-8 ovarian = system: OVCAR-8 ovarian
PC-3 prostate = system: PC-3 prostate
RPMI-8226 leukemia = system: RPMI-8226 leukemia
RXF 393 renal = system: RXF 393 renal
SF-268 CNS = system: SF-268 CNS
SF-295 CNS = system: SF-295 CNS
SF-539 CNS = system: SF-539 CNS
SK-MEL-2 melanoma = system: SK-MEL-2 melanoma
SK-MEL-28 melanoma = system: SK-MEL-28 melanoma
SK-MEL-5 melanoma = system: SK-MEL-5 melanoma
SK-OV-3 ovarian = system: SK-OV-3 ovarian
SN12C renal = system: SN12C renal
SNB-19 CNS = system: SNB-19 CNS
SNB-75 CNS = system: SNB-75 CNS
SR leukemia = system: SR leukemia
SW-620 colon = system: SW-620 colon
T-47D breast = system: T-47D breast
TK-10 renal = system: TK-10 renal
U251 CNS = system: U251 CNS
UACC-257 melanoma = system: UACC-257 melanoma
UACC-62 melanoma = system: UACC-62 melanoma
UO-31 renal = system: UO-31 renal

## COc1cccc(-c2ccc(/C=N/NC(=O)c3[nH]c4ccc(Br)cc4c3-c3ccccc3)s2)c1
786-0 renal
  GI50: 3700 nM
  TGI: > 100000 nM
A498 renal
  GI50: 82300 nM
  TGI: > 100000 nM
A549 NSCLC
  GI50: 4710 nM
  TGI: > 100000 nM
ACHN renal
  GI50: 3960 nM
  TGI: > 100000 nM
BT-549 breast
  GI50: 3960 nM
  TGI: 9440 nM
CAKI-1 renal
  GI50: 3190 nM
  TGI: 63500 nM
CCRF-CEM leukemia
  GI50: 3150 nM
  TGI: 13300 nM
COLO 205 colon
  GI50: 3280 nM
  TGI: 12900 nM
DU-145 prostate
  GI50: 3620 nM
  TGI: > 100000 nM
EKVX NSCLC
  GI50: 7390 nM
  TGI: > 100000 nM
HCC-2998 colon
  GI50: 4210 nM
  TGI: > 100000 nM
HCT-116 colon
  GI50: 2970 nM
  TGI: 10500 nM
HCT-15 colon
  GI50: 3360 nM
  TGI: > 100000 nM
HL-60(TB) leukemia
  GI50: 2160 nM
  TGI: 5210 nM
HOP-62 NSCLC
  GI50: 4390 nM
  TGI: > 100000 nM
HOP-92 NSCLC
  GI50: 9830 nM
  TGI: > 100000 nM
HS 578T breast
  GI50: 2400 nM
  TGI: 8620 nM
HT29 colon
  GI50: 2810 nM
  TGI: 10100 nM
IGROV1 ovarian
  GI50: 4260 nM
  TGI: > 100000 nM
K-562 leukemia
  GI50: 2180 nM
  TGI: > 100000 nM
KM12 colon
  GI50: 3080 nM
  TGI: 19300 nM
LOX IMVI melanoma
  GI50: 2450 nM
  TGI: 36400 nM
M14 melanoma
  GI50: 3760 nM
  TGI: > 100000 nM
MALME-3M melanoma
  GI50: 5660 nM
  TGI: > 100000 nM
MCF7 breast
  GI50: 1820 nM
  TGI: > 100000 nM
MDA-MB-231 breast
  GI50: 4770 nM
  TGI: 94700 nM
MDA-MB-435
  GI50: 1610 nM
  TGI: 4560 nM
MDA-MB-468 breast
  GI50: 2670 nM
  TGI: 19300 nM
MOLT-4 leukemia
  GI50: 3370 nM
  TGI: 14900 nM
NCI-H226 lung
  GI50: 3390 nM
  TGI: > 100000 nM
NCI-H23 lung
  GI50: 5550 nM
  TGI: 56700 nM
NCI-H460 lung
  GI50: 3010 nM
  TGI: 12500 nM
NCI-H522 lung
  GI50: 1110 nM
  TGI: 11100 nM
NCI/ADR-RES ovarian
  GI50: 2160 nM
  TGI: 5910 nM
OVCAR-3 ovarian
  GI50: 2240 nM
  TGI: 7690 nM
OVCAR-4 ovarian
  GI50: 8820 nM
  TGI: > 100000 nM
OVCAR-5 ovarian
  GI50: 3640 nM
  TGI: 25800 nM
OVCAR-8 ovarian
  GI50: 3240 nM
  TGI: 16900 nM
PC-3 prostate
  GI50: 3750 nM
  TGI: > 100000 nM
RPMI-8226 leukemia
  GI50: 3840 nM
  TGI: > 100000 nM
RXF 393 renal
  GI50: 5030 nM
  TGI: 93500 nM
SF-268 CNS
  GI50: 3720 nM
  TGI: 84300 nM
SF-295 CNS
  GI50: 3070 nM
  TGI: 87000 nM
SF-539 CNS
  GI50: 2510 nM
  TGI: 6800 nM
SK-MEL-2 melanoma
  GI50: 5980 nM
  TGI: > 100000 nM
SK-MEL-28 melanoma
  GI50: 8330 nM
  TGI: > 100000 nM
SK-MEL-5 melanoma
  GI50: 2700 nM
  TGI: 10400 nM
SK-OV-3 ovarian
  GI50: 5450 nM
  TGI: > 100000 nM
SN12C renal
  GI50: 3740 nM
  TGI: 30900 nM
SNB-19 CNS
  GI50: 9170 nM
  TGI: > 100000 nM
SNB-75 CNS
  GI50: 2630 nM
  TGI: 9120 nM
SR leukemia
  GI50: 2560 nM
  TGI: 17700 nM
SW-620 colon
  GI50: 3710 nM
  TGI: > 100000 nM
T-47D breast
  GI50: 5600 nM
  TGI: > 100000 nM
TK-10 renal
  GI50: 9970 nM
  TGI: > 100000 nM
U251 CNS
  GI50: 4920 nM
  TGI: 72200 nM
UACC-257 melanoma
  GI50: 25500 nM
  TGI: > 100000 nM
UACC-62 melanoma
  GI50: 3350 nM
  TGI: > 100000 nM
UO-31 renal
  GI50: 5400 nM
  TGI: > 100000 nM

## CN1CCN(Cc2ccc(NC(=O)c3cncc(C#Cc4cnc5ccc(N[C@H]6CCOC6)nn45)c3)cc2C(F)(F)F)CC1
786-0 renal
  GI50: 268 nM
  TGI: 959 nM
A498 renal
  GI50: 278 nM
  TGI: 490 nM
A549 NSCLC
  GI50: 175 nM
  TGI: 643 nM
ACHN renal
  GI50: 278 nM
  TGI: 980 nM
BT-549 breast
  GI50: 291 nM
  TGI: 915 nM
CAKI-1 renal
  GI50: 148 nM
  TGI: 511 nM
CCRF-CEM leukemia
  GI50: 28.3 nM
  TGI: 687 nM
COLO 205 colon
  GI50: 88 nM
  TGI: 197 nM
DU-145 prostate
  GI50: 170 nM
  TGI: 716 nM
EKVX NSCLC
  GI50: 128 nM
  TGI: 696 nM
HCC-2998 colon
  GI50: 181 nM
  TGI: 866 nM
HCT-116 colon
  GI50: 37 nM
  TGI: 290 nM
HCT-15 colon
  GI50: 321 nM
  TGI: 1290 nM
HL-60(TB) leukemia
  GI50: 43.7 nM
  TGI: 704 nM
HOP-62 NSCLC
  GI50: 172 nM
  TGI: 677 nM
HOP-92 NSCLC
  GI50: 13.7 nM
  TGI: 82.2 nM
HS 578T breast
  GI50: 62.1 nM
  TGI: 393 nM
HT29 colon
  GI50: 90.3 nM
  TGI: 512 nM
IGROV1 ovarian
  GI50: 136 nM
  TGI: 394 nM
K-562 leukemia
  GI50: 6.9 nM
  TGI: 930 nM
KM12 colon
  GI50: 6.9 nM
  TGI: 526 nM
LOX IMVI melanoma
  GI50: 56.6 nM
  TGI: 153 nM
M14 melanoma
  GI50: 103 nM
  TGI: 315 nM
MALME-3M melanoma
  GI50: 98.2 nM
  TGI: 323 nM
MCF7 breast
  GI50: 46.1 nM
  TGI: 274 nM
MDA-MB-231 breast
  GI50: 41.4 nM
  TGI: 231 nM
MDA-MB-435
  GI50: 95.8 nM
  TGI: 813 nM
MDA-MB-468 breast
  GI50: 90.3 nM
  TGI: 211 nM
MOLT-4 leukemia
  GI50: 46.8 nM
  TGI: 866 nM
NCI-H226 lung
  GI50: 14.7 nM
  TGI: 218 nM
NCI-H23 lung
  GI50: 81.4 nM
  TGI: 249 nM
NCI-H460 lung
  GI50: 144 nM
  TGI: 828 nM
NCI-H522 lung
  GI50: 103 nM
  TGI: 249 nM
NCI/ADR-RES ovarian
  GI50: 5820 nM
  TGI: 25300 nM
OVCAR-3 ovarian
  GI50: 183 nM
  TGI: 1030 nM
OVCAR-4 ovarian
  GI50: 260 nM
  TGI: 2130 nM
OVCAR-5 ovarian
  GI50: 142 nM
  TGI: 536 nM
OVCAR-8 ovarian
  GI50: 252 nM
  TGI: 1130 nM
PC-3 prostate
  GI50: 185 nM
  TGI: 3690 nM
RPMI-8226 leukemia
  GI50: 237 nM
  TGI: 1230 nM
RXF 393 renal
  GI50: 108 nM
  TGI: 274 nM
SF-268 CNS
  GI50: 180 nM
  TGI: 917 nM
SF-295 CNS
  GI50: 291 nM
  TGI: 1260 nM
SF-539 CNS
  GI50: 21 nM
  TGI: 102 nM
SK-MEL-2 melanoma
  GI50: 152 nM
  TGI: 350 nM
SK-MEL-28 melanoma
  GI50: 235 nM
  TGI: 996 nM
SK-MEL-5 melanoma
  GI50: 487 nM
  TGI: 1390 nM
SK-OV-3 ovarian
  GI50: 446 nM
  TGI: 2010 nM
SN12C renal
  GI50: 33.7 nM
  TGI: 398 nM
SNB-19 CNS
  GI50: 249 nM
  TGI: 1120 nM
SNB-75 CNS
  GI50: 144 nM
  TGI: 330 nM
SR leukemia
  GI50: 95 nM
  TGI: 9330 nM
SW-620 colon
  GI50: 72.3 nM
  TGI: 367 nM
T-47D breast
  GI50: 704 nM
  TGI: 5150 nM
TK-10 renal
  GI50: 254 nM
  TGI: 828 nM
U251 CNS
  GI50: 219 nM
  TGI: 1020 nM
UACC-257 melanoma
  GI50: 483 nM
  TGI: 1990 nM
UACC-62 melanoma
  GI50: 151 nM
  TGI: 801 nM
UO-31 renal
  GI50: 962 nM
  TGI: 2290 nM
